Experimental data published in PMC8391575, “Identification of Novel Cathepsin B Inhibitors with Implications in Alzheimer’s Disease: Computational Refining and Biochemical Evaluation” (Cells, 2021).
Read-outs that look alike come from different tables or passages of the source. Blank lines part the entries; values can stand above or below the molecule they belong to.

Assays:
human cathepsin B = molecular target: T1, human cathepsin B (Homo sapiens, UniProt P07858); assay: Cathepsin B inhibitory assay, fluorometric kit (ab185438), AFC substrate; assay type: biochemical; conditions: 10 µM
T1 construct: purchased ab185438
Protocol: Cathepsin B inhibitory assay was performed using a fluorometric-based assay kit as per company instructions (ab185438). The assay kit utilizes the ability of cathepsin B to cleave synthetic AFC (7-Amino-4-trifluoromethyl coumarin) substrate to freely release AFC; moreover, this AFC can be quantified by a fluorometer. In the presence of cathepsin B inhibitors, the cleavage of the substrate was reduced, and there was a decrease in the total loss of the AFC fluorescence. The experiments were performed in triplicate. The test compounds (virtual screened hits) were prepared in different concentrations of 2.5, 5.0, 10.0, 15.0, and 20.0 µM. […] Next, fluorescence was measured in a kinetic mode for 30–60 min at 37 °C (Ex/Em = 400/505). Two timepoints were used—0 and 15 min (ΔT = T2 − T1)—and corresponding values for the fluorescence (ΔRFU = RFU2-RFU1) were used to calculate the slope for all test inhibitor samples and EC, by dividing the net ΔRFU values by the time ΔT. The percentage of relative inhibition was calculated using the following formula: % Relative Inhibition=Slope of EC−Slope of Sample /Slope of EC×100

cathepsin B = conditions: cited from earlier work
AD animal models = conditions: cited from earlier work
[1] = Figure 1, previously reported inhibitors of cathepsin B, read-out: IC50
[2] = class of the experimental IC50, read-out: Activity Scale Experimental
[3] = Table S1, read-out: IC50: half maximal inhibitory concentration
[4] = read-out: Activity Scale Experimental

relative inhibition (human cathepsin B): 69.67%
Molecule: F-F-FMK

Molecule: CCOC(=O)[C@H]1O[C@@H]1C(=O)N[C@@H](CC(C)C)C(=O)NCCC(C)C [Compound N20, ethyl (2S,3S)-3-[[(2S)-4-methyl-1-(3-methylbutylamino)-1-oxopentan-2-yl]carbamoyl]oxirane-2-carboxylate]
IC50 (cathepsin B; [1]): 0.014 µM | pIC50 Experimental (cathepsin B; Table 4): 8.47 | IC50 (cathepsin B; [2]): < 0.3 µM | Aβ in the brain (AD animal models): reduces Aβ in the brain | memory deficits (AD animal models): improves memory deficits

Molecule: COc1cccc(Cn2c(-c3nonc3N)nc3ccccc32)c1 [Compound S27, 4-[1-[(3-methoxyphenyl)methyl]benzimidazol-2-yl]-1,2,5-oxadiazol-3-amine]
pIC50 Experimental (cathepsin B; Table 4): 4.34 | IC50 (cathepsin B; [2]): > 2.5 µM

Molecule: O=C1C[C@@H](c2ccc(O)c(-c3c(O)cc(O)c4c(=O)cc(-c5ccc(O)cc5)oc34)c2)Oc2cc(O)cc(O)c21 [AMF4, 2,3-dihydroamentoflavone]
IC50 (cathepsin B; [1]): 0.62 µM

Molecule: CCOC(=O)[C@H]1O[C@@H]1C(=O)N[C@H](C(=O)N1CCC[C@H]1C(=O)O)[C@@H](C)CC [Compound S2, (2S)-1-[(2S,3S)-2-[[(2S,3S)-3-ethoxycarbonyloxirane-2-carbonyl]amino]-3-methylpentanoyl]pyrrolidine-2-carboxylic acid]
pIC50 Experimental (cathepsin B; Table 4): 8.55 | IC50 (cathepsin B; [2]): < 0.3 µM

Molecule: CCSc1ccccc1C(=O)n1nnc2ccccc21 [Compound S28, benzotriazol-1-yl-(2-ethylsulfanylphenyl)methanone]
pIC50 Experimental (cathepsin B; Table 4): 5.15 | IC50 (cathepsin B; [2]): > 2.5 µM

Molecule: CC(C)C[C@H](NC(=O)C1OC1C(=O)O)C(=O)NCCCC[C@H](N)C(=O)O (stereo partly drawn) [Compound N2, 3-[[(2S)-1-[[(5S)-5-amino-5-carboxypentyl]amino]-4-methyl-1-oxopentan-2-yl]carbamoyl]oxirane-2-carboxylic acid]
pIC50 Experimental (cathepsin B; Table 4): 6.89 | IC50 (cathepsin B; [3]): 0.13 µM | IC50 (cathepsin B; [2]): < 0.3 µM

Molecule: Nc1cc(OC(=O)c2cccs2)nn1S(=O)(=O)c1ccc(F)cc1 [Compound S32, [5-amino-1-(4-fluorophenyl)sulfonylpyrazol-3-yl] thiophene-2-carboxylate]
pIC50 Experimental (cathepsin B; Table 4): 6.36 | IC50 (cathepsin B; [2]): 0.3 to 2.5 µM

Molecule: CC(=O)NC(=O)NC1OC(=O)C(Cl)=C1Cl (centres unmarked) [Compound S16, N-[(3,4-dichloro-5-oxo-2H-furan-2-yl)carbamoyl]acetamide]
pIC50 Experimental (cathepsin B; Table 4): 5.67 | IC50 (cathepsin B; [3]): 2.12 µM | IC50 (cathepsin B; [2]): 0.3 to 2.5 µM

Molecule: O=C(CSc1nnc(-c2ccco2)c(-c2ccco2)n1)Nc1ccccc1 [Compound S37, 2-[[5,6-bis(furan-2-yl)-1,2,4-triazin-3-yl]sulfanyl]-N-phenylacetamide]
pIC50 Experimental (cathepsin B; Table 4): 5.65 | IC50 (cathepsin B; [2]): 0.3 to 2.5 µM

Molecule: Cc1ccc(S(=O)(=O)n2nc(OC(=O)c3cccs3)cc2N)cc1 [Compound S7, [5-amino-1-(4-methylphenyl)sulfonylpyrazol-3-yl] thiophene-2-carboxylate]
pIC50 Experimental (cathepsin B; Table 4): 5.7 | IC50 (cathepsin B; [3]): 1.99 µM | IC50 (cathepsin B; [2]): 0.3 to 2.5 µM

Molecule: Cn1c(=O)c2c(-c3ccccc3)n(-n3cnnc3)cc2n(C)c1=O [Compound S30, 1,3-dimethyl-5-phenyl-6-(1,2,4-triazol-4-yl)pyrrolo[3,4-d]pyrimidine-2,4-dione]
pIC50 Experimental (cathepsin B; Table 4): 5.93 | IC50 (cathepsin B; [2]): 0.3 to 2.5 µM

Molecule: Cc1ccc(S(=O)(=O)n2nc(OC(=O)c3ccco3)cc2N)cc1 [Compound S12, [5-amino-1-(4-methylphenyl)sulfonylpyrazol-3-yl] furan-2-carboxylate]
pIC50 Experimental (cathepsin B; Table 4): 5.76 | IC50 (cathepsin B; [3]): 1.75 µM | IC50 (cathepsin B; [2]): 0.3 to 2.5 µM

Molecule: COc1ccc(-c2cc(=O)c3c(O)cc(O)cc3o2)cc1-c1c(O)cc(O)c2c(=O)cc(-c3ccc(O)cc3)oc12 [AMF5, 4’-methylamentoflavone]
IC50 (cathepsin B; [1]): 0.81 µM

Molecule: COc1ccc(S(=O)(=O)n2nc(OC(=O)c3ccco3)cc2N)cc1 [Compound S15]
pIC50 Experimental (cathepsin B; Table 4): 6.03 | IC50 (cathepsin B; [2]): 0.3 to 2.5 µM

Molecule: CCn1nc(-c2ccccc2)nc2c(=O)n(C)c(=O)nc1-2 [Compound S9, 1-ethyl-6-methyl-3-phenylpyrimido[5,4-e][1,2,4]triazine-5,7-dione]
pIC50 Experimental (cathepsin B): 7.15 | IC50 (cathepsin B; [4]): < 0.3 µM

Molecule: COc1cc(O)c2c(=O)cc(-c3ccc(OC)c(-c4c(O)cc(O)c5c(=O)cc(-c6ccc(O)cc6)oc45)c3)oc2c1 [Compound N17, 5,7-dihydroxy-8-[5-(5-hydroxy-7-methoxy-4-oxochromen-2-yl)-2-methoxyphenyl]-2-(4-hydroxyphenyl)chromen-4-one]
pIC50 Experimental (cathepsin B; Table 4): 6.26 | IC50 (cathepsin B; [3]): 0.55 µM | IC50 (cathepsin B; [2]): 0.3 to 2.5 µM

Molecule: COc1cc(O)c2c(=O)cc(-c3ccc(O)c(-c4c(O)cc(O)c5c(=O)cc(-c6ccc(O)cc6)oc45)c3)oc2c1 [Compound N21, 5,7-dihydroxy-8-[2-hydroxy-5-(5-hydroxy-7-methoxy-4-oxochromen-2-yl)phenyl]-2-(4-hydroxyphenyl)chromen-4-one]
pIC50 Experimental (cathepsin B; Table 4): 5.77 | IC50 (cathepsin B; [3]): 1.68 µM | IC50 (cathepsin B; [2]): 0.3 to 2.5 µM

Molecule: Cc1c2ccncc2c(C)c2c1[nH]c1ccccc12 [Compound N12, 5,11-dimethyl-6H-pyrido[4,3-b]carbazole]
pIC50 Experimental (cathepsin B; Table 4): 7.99 | IC50 (cathepsin B; [2]): < 0.3 µM

Molecule: COc1ccc(-c2cc(=O)c3c(O)cc(O)c(-c4cc(-c5cc(=O)c6c(O)cc(O)cc6o5)ccc4O)c3o2)cc1 [AMF2, 4’’’-methylamentoflavone]
IC50 (cathepsin B; [1]): 1.03 µM

Molecule: O=c1cc(-c2ccc(Oc3c(O)cc4oc(-c5ccc(O)cc5)cc(=O)c4c3O)cc2)oc2cc(O)cc(O)c12 [HIF, Hinokiflavone]
IC50 (cathepsin B; [1]): 0.58 µM

Molecule: COc1nc(N(C#N)CC(N)=O)nc(N2CCCC2)n1 [Compound S24, 2-[cyano-(4-methoxy-6-pyrrolidin-1-yl-1,3,5-triazin-2-yl)amino]acetamide]
pIC50 Experimental (cathepsin B; Table 4): 4.85 | IC50 (cathepsin B; [2]): > 2.5 µM

Molecule: CC(C)CCNC(=O)[C@H](CC(C)C)NC(=O)[C@H]1O[C@@H]1C(=O)O [Compound N14, (2S,3S)-3-[[(2S)-4-methyl-1-(3-methylbutylamino)-1-oxopentan-2-yl]carbamoyl]oxirane-2-carboxylic acid]
pIC50 Experimental (cathepsin B): 8.47 | IC50 (cathepsin B; [4]): < 0.3 µM

Molecule: CCn1nc(-c2cccs2)nc2c(=O)n(C)c(=O)nc1-2 [Compound S13, 1-Ethyl-6-methyl-3-thiophen-2-yl-1H-pyrimido[5,4-e][1,2,4]triazine-5,7-dione]
pIC50 Experimental (cathepsin B; Table 4): 7.14 | IC50 (cathepsin B; [2]): < 0.3 µM

Molecule: O=C(OC(C(=O)NCc1cccs1)c1ccccn1)c1cccs1 (centres unmarked) [Compound S11, [2-oxo-1-pyridin-2-yl-2-(thiophen-2-ylmethylamino)ethyl]thiophene-2-carboxylate]
pIC50 Experimental (cathepsin B; Table 4): 5.2 | IC50 (cathepsin B; [2]): > 2.5 µM

Molecule: Nc1nonc1-c1nc2ccccc2n1Cc1ccc(F)cc1 [Compound S5, 4-[1-[(4-fluorophenyl)methyl]benzimidazol-2-yl]-1,2,5-oxadiazol-3-amine]
pIC50 Experimental (cathepsin B; Table 4): 4.47 | IC50 (cathepsin B; [2]): > 2.5 µM

Molecule: CC(C)C[C@H](NC(=O)[C@@H](NC(=O)N[C@@H](Cc1ccccc1)C(=O)O)C1CCN=C(N)N1)C(=O)N[C@H](C=O)Cc1ccccc1 (stereo partly drawn) [Compound N9, (2S)-2-[[(1S)-1-(2-amino-1,4,5,6-tetrahydropyrimidin-6-yl)-2-[[(2S)-4-methyl-1-oxo-1-[[(2S)-1-oxo-3-phenylpropan-2-yl]amino]pentan-2-yl]amino]-2-oxoethyl]carbamoylamino]-3-phenylpropanoic acid]
pIC50 Experimental (cathepsin B; Table 4): 5.59 | IC50 (cathepsin B; [3]): 2.6 µM | IC50 (cathepsin B; [2]): > 2.5 µM
